Patent US20240109903A1, “SUBSTITUTED HETEROCYCLES FOR TREATING CANCER” (Northwestern University, priority 2022, published 2024)

Key:
[1] = system: HS 578T; assay: NCI 60 five-dose screen HS 578T; format: cell-based; settings: Homo sapiens, five-dose
[2] = system: MOLT-4; assay: NCI 60 five-dose screen MOLT-4; format: cell-based; settings: Homo sapiens, five-dose
[3] = system: CAKI-1; assay: NCI 60 five-dose screen CAKI-1; format: cell-based; settings: Homo sapiens, five-dose
[4] = system: 786-0; assay: NCI 60 five-dose screen 786-0; format: cell-based; settings: Homo sapiens, five-dose
[5] = system: HL-60(TB); assay: NCI 60 five-dose screen HL-60(TB); format: cell-based; settings: Homo sapiens, five-dose
[6] = system: IGROV1; assay: NCI 60 five-dose screen IGROV1; format: cell-based; settings: Homo sapiens, IGROV-1, five-dose
[7] = system: TK-10; assay: NCI 60 five-dose screen TK-10; format: cell-based; settings: Homo sapiens, five-dose
[8] = system: A549/ATCC; assay: NCI 60 five-dose screen A549/ATCC; format: cell-based; settings: Homo sapiens, five-dose
[9] = system: OVCAR-4; assay: NCI 60 five-dose screen OVCAR-4; format: cell-based; settings: Homo sapiens, five-dose
[10] = system: SF-539; assay: NCI 60 five-dose screen SF-539; format: cell-based; settings: Homo sapiens, five-dose
[11] = system: OVCAR-3; assay: NCI 60 five-dose screen OVCAR-3; format: cell-based; settings: Homo sapiens, five-dose
[12] = system: SK-MEL-5; assay: NCI 60 five-dose screen SK-MEL-5; format: cell-based; settings: Homo sapiens, five-dose
[13] = system: HOP-62; assay: NCI 60 five-dose screen HOP-62; format: cell-based; settings: Homo sapiens, five-dose
[14] = system: BT-549; assay: NCI 60 five-dose screen BT-549; format: cell-based; settings: Homo sapiens, five-dose
[15] = system: MDA-MB-468; assay: NCI 60 five-dose screen MDA-MB-468; format: cell-based; settings: Homo sapiens, five-dose
[16] = system: SR; assay: NCI 60 five-dose screen SR; format: cell-based, human; settings: five-dose
[17] = system: T-47D; assay: NCI 60 five-dose screen T-47D; format: cell-based; settings: Homo sapiens, T47D, five-dose
[18] = system: MCF7; assay: NCI 60 five-dose screen MCF7; format: cell-based; settings: Homo sapiens, five-dose
[19] = system: U251; assay: NCI 60 five-dose screen U251; format: cell-based; settings: Homo sapiens, U-251, five-dose
[20] = system: A498; assay: NCI 60 five-dose screen A498; format: cell-based; settings: Homo sapiens, five-dose
[21] = system: M14; assay: NCI 60 five-dose screen M14; format: cell-based; settings: Homo sapiens, five-dose
[22] = system: SK-MEL-28; assay: NCI 60 five-dose screen SK-MEL-28; format: cell-based; settings: Homo sapiens, five-dose
[23] = system: RPMI-8226; assay: NCI 60 five-dose screen RPMI-8226; format: cell-based; settings: Homo sapiens, five-dose
[24] = system: NCI-H226; assay: NCI 60 five-dose screen NCI-H226; format: cell-based; settings: Homo sapiens, five-dose
[25] = system: ACHN; assay: NCI 60 five-dose screen ACHN; format: cell-based; settings: Homo sapiens, five-dose
[26] = system: MALME-3M; assay: NCI 60 five-dose screen MALME-3M; format: cell-based; settings: Homo sapiens, MALME-3M, five-dose
[27] = system: NCI-H23; assay: NCI 60 five-dose screen NCI-H23; format: cell-based; settings: Homo sapiens, five-dose
[28] = system: HCC-2998; assay: NCI 60 five-dose screen HCC-2998; format: cell-based; settings: Homo sapiens, five-dose
[29] = read-out: LC50 (the source's name)
[30] = read-out: LC50 (the source's name) (converted)

## OC1CCC(Cn2c(C(F)(F)F)cc3c(Cl)ncnc32)CC1 (stereo not shown) [NUCC-0226689]
[1]
  GI50: 13.8 µM
  IC50: 93.3 µM
  IC (TGI): 53.7 µM
[1]; [29]
  CC50: ≥ 100 µM
[2]
  GI50: 2.75 µM
  IC50: 4.47 µM
  IC (TGI): 8.13 µM
[2]; [29]
  CC50: ≥ 100 µM
[3]
  GI50: 16.6 µM
  IC50: 33.1 µM
  IC (TGI): 52.5 µM
[3]; [30]
  CC50: ≥ 100 µM
[4]
  GI50: 32.4 µM
  IC50: 49 µM
  IC (TGI): 100 µM
[4]; [30]
  CC50: ≥ 100 µM
[5]
  GI50: 2.63 µM
  IC50: 5.01 µM
  IC (TGI): 8.91 µM
[5]; [30]
  CC50: ≥ 100 µM
[6]
  GI50: 1.95 µM
  IC50: 3.47 µM
  IC (TGI): 4.07 µM
[6]; [30]
  CC50: 8.51 µM
[7]
  GI50: 100 µM
  IC50: 100 µM
  IC (TGI): 100 µM
[7]; [30]
  CC50: ≥ 100 µM
[8]
  GI50: 30.9 µM
  IC50: 43.7 µM
  IC (TGI): 100 µM
[8]; [30]
  CC50: ≥ 100 µM
[9]
  GI50: 17.8 µM
  IC50: 37.2 µM
  IC (TGI): 46.8 µM
[9]; [30]
  CC50: ≥ 100 µM
[10]
  GI50: 17.8 µM
  IC50: 32.4 µM
  IC (TGI): 38.9 µM
[10]; [30]
  CC50: 85.1 µM
[11]
  GI50: 8.13 µM
  IC50: 19.1 µM
  IC (TGI): 28.8 µM
[11]; [30]
  CC50: 97.7 µM
[12]
  GI50: 4.79 µM
  IC50: 8.32 µM
  IC (TGI): 16.6 µM
[12]; [30]
  CC50: 42.7 µM
[13]
  GI50: 20 µM
  IC50: 42.7 µM
  IC (TGI): 57.5 µM
[13]; [30]
  CC50: ≥ 100 µM
[14]
  GI50: 13.2 µM
  IC50: 28.2 µM
  IC (TGI): 28.2 µM
[14]; [30]
  CC50: 58.9 µM
[15]
  GI50: 2.14 µM
  IC50: 7.08 µM
  IC (TGI): 5.62 µM
[15]; [30]
  CC50: 22.4 µM
[16]; Homo sapiens
  GI50: 2.14 µM
  IC50: 3.55 µM
[16]; Homo sapiens, read-out: LC50 (the source's name)
  CC50: ≥ 100 µM
[16]
  TGI: 5.17 −log[M]
[17]
  GI50: 26.3 µM
  IC50: 91.2 µM
  IC (TGI): 100 µM
[17]; [29]
  CC50: ≥ 100 µM
[18]
  GI50: 37.2 µM
  IC50: 52.5 µM
  IC (TGI): 100 µM
[18]; [30]
  CC50: ≥ 100 µM
[19]
  GI50: 3.24 µM
  IC50: 4.27 µM
  IC (TGI): 12.9 µM
[19]; [30]
  CC50: 44.7 µM
[20]
  GI50: 100 µM
  IC50: 100 µM
  IC (TGI): 100 µM
[20]; [30]
  CC50: ≥ 100 µM
[21]
  GI50: 4.9 µM
  IC50: 8.71 µM
  IC (TGI): 26.9 µM
[21]; [30]
  CC50: ≥ 100 µM
[22]
  GI50: 9.33 µM
  IC50: 19.1 µM
  IC (TGI): 30.9 µM
[22]; [30]
  CC50: ≥ 100 µM
[23]
  GI50: 33.9 µM
  IC50: 58.9 µM
  IC (TGI): 100 µM
[23]; [29]
  CC50: ≥ 100 µM
[24]
  GI50: 23.4 µM
  IC50: 100 µM
  IC (TGI): 79.4 µM
[24]; [30]
  CC50: ≥ 100 µM
[25]
  GI50: 8.71 µM
  IC50: 15.5 µM
  IC (TGI): 50.1 µM
[25]; [30]
  CC50: ≥ 100 µM
[26]
  GI50: 17.8 µM
  IC50: 85.1 µM
  IC (TGI): 64.6 µM
[26]; [30]
  CC50: ≥ 100 µM
[27]
  GI50: 3.09 µM
  IC50: 5.5 µM
  IC (TGI): 11.5 µM
[27]; [30]
  CC50: 45.7 µM
[28]
  GI50: 1.78 µM
  IC50: 3.24 µM
  IC (TGI): 3.31 µM
[28]; [30]
  CC50: 6.17 µM
